Test results reported in paper PMC5515859, “Metabolism of F18, a Derivative of Calanolide A, in Human Liver Microsomes and Cytosol” (Frontiers in Pharmacology, 2017).

Columns and labels:
CYP3A4 = system: CYP3A4; set-up: method as in unpublished data; settings: previous study; ref unpublished data; cited from earlier work
CYP2C19 = system: CYP2C19; set-up: method as in unpublished data; settings: previous study; ref unpublished data; cited from earlier work
CYP1A2 = system: CYP1A2; set-up: method as in unpublished data; settings: previous study; ref unpublished data; cited from earlier work
VSV-G/HIV-1 viruses = assay: microbe, parasite or virus in culture; type: cell-based; settings: Human immunodeficiency virus 1, HEK-293T, 48 h, read-out: IC50, inhibition of HIV-1 replication
[1] = system: Y181C single mutation of HIV-1; settings: ref Xue et al., 2010; cited from earlier work
[2] = Pharmacokinetics in rats after oral administration of F18; type: in vivo, Sprague-Dawley rats; settings: rat blood, oral F18 50 mg/kg, mean ± SD, n = 5
Method: To investigate the pharmacokinetic characteristics of F18 and its major metabolites, five rats were intragastrically administered F18 at a dose of 50 mg/kg. Blood samples were collected in heparinized ice-bath tubes from the suborbital veniplex at 0, 0.25, 0.5, 1, 2, 4, 6, 8, 12, 16, and 24 h postdose. The blood concentrations of F18 and its major metabolites were determined by LC-MS/MS and their pharmacokinetic parameters were calculated through non-compartmental analysis using WinNonlin Version 6.1 (Pharsight, Mountain View, CA, USA).
For the blood samples, F18, M1, M3-1, and M3-2 were simultaneously quantified using the following elution gradient: Solvent B was maintained at 15% for 2 min, increased to 85% in 1 min, maintained at 85% for 5 min, decreased to 15% in 0.5 min and maintained at 15% for 4.5 min. Detection was also performed using a Finnigan TSQ Quantum MS instrument with an electrospray ionization probe operated in the positive mode.
Calibration curves for F18 and its metabolites were fitted via linearly weighted (1/x^2) least-squares regression. The correlation coefficient values of F18 and its metabolites in the incubations were >0.99 for the range 10–5,000 nM; the LOQ was 10 nM with a signal-to-noise ratio >10:1; the accuracies were 90–113% and the precisions (RSD) were <10.5%. In the blood samples, the correlation coefficient values for F18, M1, M3-1, and M3-2 were >0.99 for the range 5–2,000 nM; the LOQ was 5 nM with the signal-to-noise ratio >10:1; the accuracies were 91–112% and the precisions (RSD) were <9.6%. In addition, no interference was found in the retention time of each analyte in both the incubated samples and the blood samples.

HIV-1 = settings: ref Xue et al., 2010, cited from earlier work
recombinant CYP3A4 = target: T1, recombinant CYP3A4 (Homo sapiens, UniProt P08684); assay: Metabolism of F18 by cDNA-expressed CYP3A4; type: in vitro ADME; settings: F18 10 μM, 50 pmol/mL enzyme, 1 h; among 14 CYP isoforms
T1 construct: purchased BD Gentest (Woburn, MA, USA)
Method: To further verify the roles of CYPs and FMOs in the metabolism of F18 in humans, F18 (10 μM) was incubated individually with 14 cDNA-expressed human CYP isozymes (50-pmol/mL CYP1A1, CYP1A2, CYP2A6, CYP2B6, CYP2C8, CYP2C9, CYP2C19, CYP2D6, CYP2E1, CYP2J2, CYP3A4, CYP4F2, CYP4F3, and CYP4A11) and three cDNA-expressed FMO enzymes (50-pmol/mL FMO1, FMO3, and FMO5). The incubation conditions were similar to those used for HLMs (described above), with the exception of the incubating time […]. Samples incubated without NADPH were used as the negative control.

CYPs and FMOs in HLMs = assay: Microsomal incubations of F18 with chemical inhibitors of CYPs or thermal inactivation of FMOs; settings: HLMs preheated at 50°C for 5 min, F18 10 μM
Method: The contributions of CYPs and FMOs to the metabolism of F18 were investigated by chemical inhibition and thermal inactivation, respectively. […] Briefly, F18 (10 μM) was incubated with HLMs (0.5 mg protein/mL) and an NADPH-generating system in the absence and presence of CYP inhibitors at 37°C for 30 min, and the reaction was terminated with two volumes of ice-cold acetonitrile. […] In brief, HLMs (0.5 mg protein/mL) were preheated at 50°C for 5 min and then immersed in an ice-cold bath. After the addition of F18 (10 μM) and equilibration for 3 min at 37°C, the reaction was started by the addition of the NADPH-generating system. After a 30-min incubation, the reactions were terminated as described above. […] The formation of the major metabolites M1, M2-9, M3-1, M3-2, M5-2, M5-3, M5-4, and M5-5 was analyzed by LC-MS/MS.
The amounts of F18, M1, M2-9, M3-1, M3-2, M5-2, M5-3, M5-4, and M5-5 in the incubations were simultaneously quantified with the LC-MS/MS system. […] The sheath gas, auxiliary gas, spray voltage and tube lens parameters were the same as those for the metabolic profiling studies.

CYP2C9 = system: CYP2C9; set-up: method as in unpublished data; settings: previous study; ref unpublished data; cited from earlier work

T1 sequence (P08684 whole entry, canonical isoform): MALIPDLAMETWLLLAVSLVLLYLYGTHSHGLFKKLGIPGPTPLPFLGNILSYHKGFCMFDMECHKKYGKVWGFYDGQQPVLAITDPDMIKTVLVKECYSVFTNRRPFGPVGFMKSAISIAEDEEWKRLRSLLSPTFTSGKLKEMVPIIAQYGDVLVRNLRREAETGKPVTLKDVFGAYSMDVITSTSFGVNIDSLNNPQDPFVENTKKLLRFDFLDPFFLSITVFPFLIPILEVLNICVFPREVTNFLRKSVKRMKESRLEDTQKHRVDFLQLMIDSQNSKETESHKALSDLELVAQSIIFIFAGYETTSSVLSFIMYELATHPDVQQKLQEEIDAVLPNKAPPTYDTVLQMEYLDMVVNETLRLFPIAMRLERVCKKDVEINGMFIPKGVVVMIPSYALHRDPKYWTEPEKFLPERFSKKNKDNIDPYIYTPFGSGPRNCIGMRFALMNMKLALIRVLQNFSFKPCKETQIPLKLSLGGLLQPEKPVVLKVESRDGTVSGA

Structure (SMILES): CCCc1cc(=O)oc2c3c(c4c(c12)OC(C)(C)C=C4)OC(CCl)CC3=O (centres unmarked) [Metabolite F18, 10-Chloromethyl-11-demethyl-12-oxo-calanolide A]
- Effect on CYP3A4 (CYP3A4): activation-inducing effect
- Effect on CYP2C19 (CYP2C19): potent inhibitory effects
- Effect on CYP1A2 (CYP1A2): potent inhibitory effects
- IC50 (VSV-G/HIV-1 viruses): 190 nM
- Potency against Y181C mutant HIV-1 (in words) [1]: extremely high potency
- Cmax ([2]; Sprague-Dawley): 443 ± 107 nM
- Tmax ([2]; Sprague-Dawley): 3.3 ± 2.2 h
- half-life ([2]; Sprague-Dawley): 5.3 ± 2.8 h
- MRT last ([2]; Sprague-Dawley, read-out: MRT0−t): 7.8 ± 1 h
- MRT inf ([2]; Sprague-Dawley, read-out: MRT0−∞): 10 ± 2.4 h
- AUC0−∞ ([2]; 50 mg/kg): 5,166 h^*nM
- therapeutic (index) (HIV-1): 1417
- EC50 (HIV-1; read-out: half-maximal effective concentration (EC50)): 7.4 nM
- Metabolic activity of recombinant CYP3A4 for the formation of M1, M2-9, M5-2, M5-3, M5-4, and M5-5 (recombinant CYP3A4): highest metabolic activity
- Formation of M3-1 after thermal inactivation of FMOs (CYPs and FMOs in HLMs): significantly inhibited
- Reduction in M1 formation by thermal inactivation of FMOs (CYPs and FMOs in HLMs): 64%
- Effect on CYP2C9 (CYP2C9): potent inhibitory effects
